According to patent US12324858B2, “Pharmaceutical formulation and system and method for delivery” (Rilento Pharma, LLC, priority 2018, dated 2025):
“Also recorded” adds a separate entry of the source. Counter-ions that a name gives are not always drawn.

Key:
[1] = Background UV spectra of individual ingredients in pH-2 water; type: physicochemical
Source text: Using the same instrument parameters and cuvettes, spectra were also acquired for each individual ingredient in the mixtures for the purpose of determining background contributions to the overall absorbance spectra that were obtained for the fully formulated mixtures. […] In this way, the background experiments were representative of the highest degree of spectral background contribution that might be potentially observed for the fully formulated devices if the devices were to completely disintegrate and dissolve during the water-soak experiment.
BUP-HCl is known to be a strong chromophore with a documented UV absorption maximum at 262 nm (Corciova, A., Eur. Chem. Bull., 2012, 2(8), 554-557).

[2] = Suspension test of candidate liquids with GLBG (gelation); type: physicochemical; details: for Gelation of GLBG suspended in the liquid: 2/1 w/w liquid to GLBG, monitoring window 0-24 and 0-48 hours; for Suitable for use in a hydrophilic device / Suitable for use in a hydrophobic device: suspension test with GLBG
Protocol: The suspensions are then qualitatively monitored as a function of time for physical changes, such as the onset of gelation, by using any one of a variety of possible qualitative or quantitative techniques. Note that other liquid to gelatin ratios can also be employed, including ratios that are intended for use in various end-applications. […] Monitoring times of suspensions can include various time points after the suspensions are mixed, including for example, 5 minutes after mixing, 0.5 hours after mixing, 1 hour after mixing, 5 hours after mixing, 24 hours after mixing, 48 hours after mixing, 1 week after mixing, 1 month after mixing, 6 months after mixing, 1 year after mixing, and even 2 to 5 years after mixing. […] Of course, quantitative measurements can also be employed if so desired (e.g., Brookfield viscosity, parallel plate dynamic mechanical techniques, etc.). […] Conversely, if there are signs of gelation, including for example, any one or more of the following responses before the end of the monitoring time window: 1) development of elastic recovery; 2) visualization of permanent coalescence of gelatin particulates; or 3) solid network formation with loss of pourability, then these liquids are by definition excluded as candidates for use in more hydrophobic formulations, and are instead considered as candidate liquids for use in preparing more hydrophilic formulations. […] A spatula was used to stir the ingredients to create a suspension. The suspensions were then allowed to set under static conditions and were qualitatively monitored as a function of time. Results at t=5 minutes after mixing, t=0.5 hours after mixing, t=5 hours after mixing, t=24 hours after mixing, and at t=48 hours after mixing were reported. The tests were conducted at 20 degrees C. with one exception, one of the tests was conducted at 27 degrees C. to ensure that the carrier was above its melt point and in its liquid state.

[3] = mineral oil estimated, cited from earlier work; for HANtotal: Hansen Solubility Parameter, total; for HAN δDispersion / HAN δH-bonding / HAN δPolar: Hansen

Compound | Gelation of GLBG suspended in the liquid [2] | Suitable for use in a hydrophilic device [2] | Suitable for use in a hydrophobic device [2] | HAN δDispersion [3] [MPa^1/2] | HAN δH-bonding [3] [MPa^1/2] | HAN δPolar [3] [MPa^1/2] | further results
CCCCN1CCCCC1C(=O)Nc1c(C)cccc1C (stereo not shown) [BUP free base, bupivacaine] | – | – | – | – | – | – | Relative Absorbance at 270 nm at t = 24 hrs. ([1]; individual ingredient in pH-2 water, background UV spectrum): > or = 4 (i.e.,; Solubility in water ([1]; water): low solubility in water
CCCCN1CCCCC1C(=O)Nc1c(C)cccc1C (stereo not shown) [BUP-HCl, bupivacaine] | – | – | – | – | – | – | Solubility in pH-2 water ([1]; mildly acidic conditions, pH-2 water (dilute HCl)): completely soluble under these conditions
OCC(O)CO [Glycerin] | lead to gelation of gelatin | Yes | No | – | – | – | Gelation of GLBG suspended in the liquid ([2]; listed as glycerin): work time window prior to the onset of gelation was observed to be significantly longer
OCC(O)CO [Glycerol] | – | – | – | 17.4 | 29.3 | 12.1 | HANtotal [3]: 36.2 MPa^1/2; HSP ([3]; Hildebrand Solubility Parameter): 33.8 MPa^1/2
water | lead to gelation of gelatin; also recorded: gelation and elastic network formation was observed to begin almost immediately | Yes | No | 15.5 | 42.4 | 16.0 | –

More lines, main results first:

Gelation of GLBG suspended in the liquid [2] | Suitable for use in a hydrophilic device [2] | Suitable for use in a hydrophobic device [2] | Compound | HAN δDispersion [3] [MPa^1/2] | HAN δH-bonding [3] [MPa^1/2] | HAN δPolar [3] [MPa^1/2] | further results
no signs of gelation | No | Yes | CCCCCCCC(=O)OCC(COC(=O)CCCCCCC)OC(=O)CCCCCCC [caprylic triglyceride] | 16.2 | 4 | 3.4 | HANtotal [3]: 17.0 MPa^1/2
no signs of gelation | No | Yes | CCCCCCCCCCCCCCCC(=O)OC(C)C [isopropyl palmitate] | – | – | – | –
